“And” between values parts separate entries of the source, which are not always exact repeats. Equal values may be shown once. Read-outs that look alike come from different tables or passages of the source.
Key:
[1] = 1H NMRD profiles (water proton relaxivity); type: physicochemical; conditions: for D / TR / TV / a / q / r / Δ^2: 25° C., pH 6.9, fits of NMRD profile and 17O NMR
From the text: (§1) Measuring the relaxation rates of an abundant nuclear species as a function of the magnetic field over a wide range is called relaxometry. A relaxometry profile is a plot of the nuclear magnetic relaxation rate, usually 1/T1, as a function of the Larmor frequency or the magnetic field. This profile is also called a Nuclear Magnetic Resonance Dispersion (NMRD) profile. Compared with the NMRD profile, the prominent advantage of the ^17O NMR technique is that it allows the accurate determination of the water exchange rate 1/TM. This is a consequence of the oxygen nucleus being closer to the paramagnetic centre when bound in the inner-sphere, wherein the outer-sphere contributions to the relaxation rates are negligibly small. With the help of NMRD profiles, ^17O NMR measurements, and the Soloman-Bloemnergen-Morgan theory, several important parameters, such as TM, TR, TV, Δ^2 and rH, can be measured.
Water proton nuclear magnetic resonance dispersion NMRD profile is used to record the longitudinal water proton relaxation rates as a function of magnetic fields. The method is, in principle, sensitive to all of the parameters that influence relaxivity. The ^1H NMRD profiles were measured over a continuum of magnetic field strength from 0.00024 to 0.24 T (corresponding to 0.01-10 MHz proton Larmor frequency, 1 T≈41.7 MHz) on a Spinmaster FFC (Stelar, Mede (PV)), which is a fast field-cycling NMR relaxometer installed at the LIMA Laboratory (Bioindustry Park, Ivrea (TO), Italy). The relaxometer worked under complete control with an absolute uncertainty in 1/T1 of ±2%. The NMRD profiles were measured using 1-2 mM solutions of the complexes.

[2] = 1H NMRD profiles (water proton relaxivity); type: physicochemical; conditions: 20 MHz; for proton relaxivity r1 (r1p): 25° C., pH 6.9
[3] = test system: MIHA cells; assay: AO/EB staining, laser scanning confocal microscopy; type: cell-based; conditions: 10 μM, 1 h, 2 h, 8 h, 24 h incubation, 37° C.
Procedure: MIHA cells in the absence (control) and presence of Gd-DOTA (10 μM), Gd-DO3A (10 μM), and GdL1 (10 μM) incubated at 37° C. and 5% CO2, 95% air in a humidified incubator for 1 h, 2 h, 8 h, and 24 h, respectively.
Based on cell morphology and cell membrane integrity, normal, necrotic, and apoptotic cells can be distinguished using laser confocal microscopy. FIG. 22 gives the cell morphology in the absence and presence of Gd-DOTA (10 μM), Gd-DO3A (10 μM), and GdL1 (10 μM) at various time intervals after the incubation. In the absence or presence of the Gd^3+ complexes, the nuclei of the living cells were stained as bright blue spots in the nucleus.

[4] = Variable-temperature 17O NMR transverse relaxation rate; type: physicochemical; conditions: for water exchange rate kex^298 / TM: 25° C.; for TM: pH 6.9, derived from VT 17O NMR spectroscopy; for exchange lifetime TM of inner-sphere coordinated water: 298 K (25° C.), 2.12 T; for q, inner-sphere coordinated water molecules: from NMRD profile / 17O NMR data, near neutral pH
From the text: as §1
The variable-temperature ^17O NMR measurements were recorded on a JEOL EX-90 (2.1 T) spectrometer that was equipped with a 5 mm probe, by using a D2O external lock. The experimental settings were: spectral width of 10000 Hz, pulse width of 7 μs, acquisition time of 10 ms, 1000 scans, and no sample spinning. Solutions containing 2.6% of ^17O isotope were used. The observed transverse relaxation rates (R2obs^O) were calculated from the signal width at half height.

[5] = test system: kidney cortex; assay: In vivo MRI, renal intensity enhancement; set-up: species or system rat; conditions: for maximal renal intensity enhancement (IE): 0.1 mmol/kg (standard dosage), rat, first few minutes after administration; for time after administration at which almost all renal IE was diminished: kidney cortex
Procedure: (§2) To study the MRI contrast and biodistribution behavior of gadolinium complexes […] pendant crown ethers, experiments were performed using male Sprague-Dawley (SD) rats that weighted 150-180 g, and were housed at the Wuhan Institute of Physical and Mathematics of the Chinese Academy of Sciences (Wuhan, Hubei Province, China). All procedures conformed to the institutional guidelines for animal welfare. The rat was injected via the femoral vein with 1 mL saline solution of GdL1 in concentrations of 0.1, 0.033, and 0.02 mM/kg, which are the standard dosage, one third and one fifth of the standard dosage used in clinic currently. MR imaging was performed on a 4.7 T Bruker BIO-SPEC-47/30 MRI scanner with a custom spiral surface coil. The animal was scanned in the prone position in the MRI experiment. […] The total duration of the dynamic scanning lasted up to 400 min after the administration, with an image every 4 min. A water tube was placed in the field of view as a phantom reference. The intensity enhancement (IE) of the region of interest (RI) at time point t is expressed by IE=100% (RI(t)-RI(0))/RI(0) where RI(t) corresponds to the normalized signal intensity as measured at time point, t and RI(0) is the normalized signal intensity precontrast.

[6] = 298 K; cited from earlier work
[7] = cited from earlier work; for r1p / relaxivity: 20 MHz; for r1p / bound water molecular resident lifetime TM: 298 K, typical values
[8] = test system: liver parenchyma; assay: In vivo MRI, hepatic intensity enhancement; set-up: species or system rat; conditions: for maximal hepatic IE: rat
Procedure: as §2

D [1] [cm^2s^−1] | TR [1] [ps] | TV [1] [ps] | a [1] [Å] | q [1] | r [1] [Å] | Δ^2 [1] [s⁻¹] | proton relaxivity r1 (r1p) [2] [mM⁻¹ s⁻¹] | water exchange rate kex^298 [4] [s⁻¹] | TM [4] [ns] | exchange lifetime TM of inner-sphere coordinated water [4] [ns] | Compound | maximal renal intensity enhancement (IE) [5] | maximal hepatic IE ([8]; 0.1 mmol/kg (standard dosage)) [%] | further results
2.24E-5 | 66 | 14 | 3.9 | 2 | 3.15 | 4.6e+19 | 5.72 | 6.3e+06 | 160 | 160 | O=C([O-])CN1CCNCCN(CC(=O)[O-])CCN(CC(=O)[O-])CC1.[Gd+3] [Gd-DO3A, reference compound] | 140% |  | cell morphology (apoptotic or necrotic cells) [3]: no obvious apoptotic or necrotic cells were found; time after administration at which almost all renal IE was diminished ([5]; 0.1 mmol/kg): 120 min; thermodynamic stability log K [6]: 22.0
2.24E-5 | 73 | 7.7 | 4.0 | 1 | 3.1 | 1.3e+19 | 4.74 | 4.1e+06 | 300 | 245 | O=C([O-])CN1CCN(CC(=O)[O-])CCN(CC(=O)O)CCN(CC(=O)[O-])CC1.[Gd+3] [Gd-DOTA, reference compound] | 110% and 123% | 70 | cell morphology (apoptotic or necrotic cells) [3]: no obvious apoptotic or necrotic cells were found; r1p [7]: 4.74 mM⁻¹ s⁻¹; relaxivity ([7]; 37° C.): 3.4 mM⁻¹ s⁻¹; bound water molecular resident lifetime TM [7]: about 244 ns; time after administration at which almost all renal IE was diminished ([5]; 0.1 mmol/kg): 70 min; thermodynamic stability log K [6]: 24.6; hepatic IE ([8]; 0.02 mmol/kg): no remarkable hepatic IE was detected; time after administration of maximal hepatic IE ([8]; 0.1 mmol/kg): 30 to 40 min; time after administration of maximal hepatic IE ([8]; 0.033 (0.03) mmol/kg): 30 to 40 min; maximal hepatic IE ([8]; 0.033 (0.03) mmol/kg): 30%; time after which hepatic IE faded away ([8]; 0.1 and 0.033 mmol/kg): 100 min
2.24E-5 | 73 | 20 | 4.0 | 1 | 3.1 | 4.2e+19 |  |  | 250 |  | O=C([O-])CN(CCN(CC(=O)[O-])CC(=O)O)CCN(CC(=O)[O-])CC(=O)O.[Gd+3] [Gd-DTPA, reference compound] |  |  | r1p [7]: 4.69 mM⁻¹ s⁻¹; bound water molecular resident lifetime TM [7]: ~303 ns
 |  |  |  |  |  |  |  |  |  |  | CC(O)CN1CCN(CC(=O)[O-])CCN(CC(=O)[O-])CCN(CC(=O)[O-])CC1.[Gd+3] (stereo not shown) [Gd-[HP-DO3A]] |  |  | relaxivity ([7]; 40° C.): 3.65 mM⁻¹ s⁻¹
2.24E-5 | 140 | 13 | 4.0 | 2 | 2.97 | 9e+19 | 9.36 | 8.62e+06 | 116 | 116 | O=C([O-])CN1CCN(CCOCC2COCCOCCOCCOCCO2)CCN(CC(=O)[O-])CCN(CC(=O)[O-])CC1.[Gd+3] (stereo not shown) [GdL2, Gd^3+ complex of L2] | 135% | 100 | outer-sphere contribution to the overall observed proton relaxivity ([2]; pH 10.0): about 50%; outer-sphere relaxivity ([2]; pH 10.0): 2.1 mM⁻¹ s⁻¹; overall relaxivity ([2]; pH 10.0): 4.21 mM⁻¹ s⁻¹; q, inner-sphere coordinated water molecules [4]: about 2; renal enhancement left in less than an hour ([5]; 0.1 mmol/kg): 30%; hepatic IE level maintained for more than 4 h ([8]; 0.1 mmol/kg): > 60%; time after administration of maximal hepatic IE ([8]; 0.1 mmol/kg): 60 min; time for which strong/high hepatic IE was maintained ([8]; 0.1 mmol/kg): more than 4 h
2.24E-5 | 210 | 21 | 4.2 | 1 | 3.03 | 3e+19 |  |  | 246 | 246 | O=C([O-])CN1CCN(CC(=O)[O-])CCN(CC(=O)N2CCOCCOCCN(Cc3ccc4ccccc4n3)CCOCCOCC2)CCN(CC(=O)[O-])CC1.[Gd+3] [GdL3, Gd^3+ complex of L3] | 58% | 59 | reorientation lifetime TR [1]: 210 ps; relaxivity ([2]; pH 7.4): 4.95 mM⁻¹ s⁻¹; q, inner-sphere coordinated water molecules [4]: 1; hepatic IE level maintained for more than 4 h ([8]; 0.1 mmol/kg): about 50%; time for which strong/high hepatic IE was maintained ([8]; 0.1 mmol/kg): more than 4 h
 |  |  |  |  |  |  |  |  |  |  | O=C([O-])CN1CCN(CC(=O)[O-])CCN(C(CO)C(O)CO)CCN(CC(=O)[O-])CC1.[Gd+3] (stereo not shown) [Gd[DO3A-butrol]] |  |  | relaxivity ([7]; 37° C.): 5.6 mM⁻¹ s⁻¹

From patent US20060057071A1, “Paramagnetic complexes with pendant crown compounds showing improved targeting-specificity as MRI contrast agents” (priority 2004, published 2006)
